# Laboratory results as given in patent publication US20160050935A1, “METHOD FOR CONTROLLING PARTICLE SIZE OF SILVER PARTICLES, SILVER PARTICLES, ANTIMICROBIAL AGENT CONTAINING SLIVER PARTICLES, AND USE THEREOF” (SOFSERA CORPORATION, priority 2013, published 2016).
# Test system: Escherichia coli (Gram-negative bacteria)
# Experiment: Antibacterial test of silver particles-2 (bacteria count in tube 1 over time)
# Assay type: cell-based
# Protocol: A test similar to that in <5. Antibacterial test of silver particles-1> was carried out with use of Escherichia coli (Gram-negative bacteria), which is one of model organisms and by which bacteria are typified. Note that the test was carried out by a method similar to that in <5. Antibacterial test of silver particles-1>, except that a kind of the bacteria used in the test was changed. Therefore, the method of the test will not be described here, and only results of the test will be described.
# FIG. 10 illustrates results of the test carried out with use of “1 mM CDT-Ag,” “5 mM CDT-Ag,” and “10 mM CDT-Ag.” More specifically, FIG. 10 illustrates results of, “0 (zero) h,” “0.5 h,” “1 (one) h,” and “2 h” after the silver particles were mixed with the bacteria, (i) taking out an LB culture medium from each of tubes 1 through 8 stored in an incubator and (ii) carrying out an operation K), that is, a result of incubating the bacteria at 37° C. for 24 hours by storing a petri dish, prepared in the operation K), in the incubator.
compound,measurement,setting,value
"O=C(O)CCCCCCCCCCS [Free CDT, 10-carboxy-1-decanthiol]",bacteria count in the tube 1 (count at 0 h = 1),0 h (set to 1 by assumption),1
same,bacteria count in the tube 1 (count at 0 h = 1),0.5 h after mixing,1
same,bacteria count in the tube 1 (count at 0 h = 1),1 h after mixing,1
same,bacteria count in the tube 1 (count at 0 h = 1),2 h after mixing,1
same,antibacterial activity,"in words, from FIG. 10 and Table 3",did not have antibacterial activity
